Experimental data from patent US20220119354A1, “DIAMINO-SUBSTITUTED PYRIDINES AND PYRIMIDINES AS HERBICIDES” (FMC Corporation, priority 2019, published 2022).

Experiments:
Format in all cases: in vivo
[1] = system: barnyardgrass (Echinochloa crus-galli); assay: Test A preemergence, barnyardgrass; details: 0 to 100 scale, 0 is no effect, 100 is complete control
From the text: (§1) Seeds of plant species selected from barnyardgrass (Echinochloa crus-galli), kochia (Kochia scoparia), ragweed (common ragweed, Ambrosia elatior), ryegrass, Italian (Lolium multiflorum), foxtail, giant (Setaria faberii), foxtail, green (Setaria viridis), and pigweed (Amaranthus retroflexus) were planted into a blend of loam soil and sand and treated preemergence with a directed soil spray using test chemicals formulated in a non-phytotoxic solvent mixture which included a surfactant.
(§2) At the same time, plants selected from these weed species and also wheat (Triticum aestivum), corn (Zea mays), blackgrass (Alopecurus myosuroides), and galium (catchweed bedstraw, Galium aparine) were planted in pots containing the same blend of loam soil and sand and treated with postemergence applications of test chemicals formulated in the same manner. Plants ranged in height from 2 to 10 cm and were in the one- to two-leaf stage for the postemergence treatment. Treated plants and untreated controls were maintained in a greenhouse for approximately 10 d, after which time all treated plants were compared to untreated controls and visually evaluated for injury. Plant response ratings, summarized in Table A, are based on a 0 to 100 scale where 0 is no effect and 100 is complete control. A dash (-) response means no test result.

kochia (Kochia scoparia) [2] = assay: Test A preemergence, kochia; details: 0 to 100 scale, 0 is no effect, 100 is complete control
From the text: as §1, §2

[3] = system: ragweed (common ragweed, Ambrosia elatior); assay: Test A preemergence, ragweed; details: 0 to 100 scale, 0 is no effect, 100 is complete control
From the text: as §1, §2

[4] = system: ryegrass, Italian (Lolium multiflorum); assay: Test A preemergence, Italian ryegrass; details: 0 to 100 scale, 0 is no effect, 100 is complete control
From the text: as §1, §2

[5] = system: foxtail, giant (Setaria faberii); assay: Test A preemergence, giant foxtail; details: 0 to 100 scale, 0 is no effect, 100 is complete control
From the text: as §1, §2

[6] = system: pigweed (Amaranthus retroflexus); assay: Test A preemergence, pigweed; details: 0 to 100 scale, 0 is no effect, 100 is complete control
From the text: as §1, §2

[7] = system: barnyardgrass (Echinochloa crus-galli); assay: Test A postemergence, barnyardgrass; details: 0 to 100 scale; for Plant response rating, Barnyardgrass: 0 no effect, 100 complete control
From the text: as §1, §2

kochia (Kochia scoparia) [8] = assay: Test A postemergence, kochia; details: 0 to 100 scale; for Plant response rating, Kochia: 0 no effect, 100 complete control
From the text: as §1, §2

[9] = system: ragweed (common ragweed, Ambrosia elatior); assay: Test A postemergence, ragweed; details: 0 to 100 scale; for Plant response rating, Ragweed: 0 no effect, 100 complete control
From the text: as §1, §2

[10] = system: ryegrass, Italian (Lolium multiflorum); assay: Test A postemergence, Italian ryegrass; details: 0 to 100 scale; for Plant response rating, Ryegrass, Italian: 0 no effect, 100 complete control
From the text: as §1, §2

[11] = system: foxtail, giant (Setaria faberii); assay: Test A postemergence, giant foxtail; details: 0 to 100 scale; for Plant response rating, Foxtail, Giant: 0 no effect, 100 complete control
From the text: as §1, §2

[12] = system: pigweed (Amaranthus retroflexus); assay: Test A postemergence, pigweed; details: 0 to 100 scale; for Plant response rating, Pigweed: 0 no effect, 100 complete control
From the text: as §1, §2

[13] = system: wheat (Triticum aestivum); assay: Test A postemergence, wheat; details: 0 to 100 scale; for Plant response rating, Wheat: 0 no effect, 100 complete control
From the text: as §1, §2

corn (Zea mays) = assay: Test A postemergence, corn; details: 0 to 100 scale; for Plant response rating, Corn: 0 no effect, 100 complete control
From the text: as §1, §2

[14] = system: blackgrass (Alopecurus myosuroides); assay: Test A postemergence, blackgrass; details: 0 to 100 scale; for Plant response rating, Blackgrass: 0 no effect, 100 complete control
From the text: as §1, §2

[15] = system: galium (catchweed bedstraw, Galium aparine); assay: Test A postemergence, galium; details: 0 to 100 scale; for Plant response rating, Galium: 0 no effect, 100 complete control
From the text: as §1, §2

[16] = 1000 g ai/ha, 0 is no effect, 100 is complete control

Structure (SMILES) | Barnyardgrass plant response rating ([1]; 125 g ai/ha) | Barnyardgrass plant response rating ([1]; 500 g ai/ha) | Kochia plant response rating (kochia (Kochia scoparia) [2]; 125 g ai/ha) | Kochia plant response rating (kochia (Kochia scoparia) [2]; 500 g ai/ha) | Ragweed plant response rating ([3]; 125 g ai/ha) | Ragweed plant response rating ([3]; 500 g ai/ha) | Ryegrass, Italian plant response rating ([4]; 125 g ai/ha) | Ryegrass, Italian plant response rating ([4]; 500 g ai/ha) | Foxtail, Giant plant response rating ([5]; 125 g ai/ha) | Foxtail, Giant plant response rating ([5]; 500 g ai/ha) | Pigweed plant response rating ([6]; 125 g ai/ha) | Pigweed plant response rating ([6]; 500 g ai/ha) | Plant response rating, Barnyardgrass ([7]; 125 g ai/ha) | Plant response rating, Barnyardgrass ([7]; 500 g ai/ha) | Plant response rating, Kochia (kochia (Kochia scoparia) [8]; 125 g ai/ha) | Plant response rating, Kochia (kochia (Kochia scoparia) [8]; 500 g ai/ha) | Plant response rating, Ragweed ([9]; 125 g ai/ha) | Plant response rating, Ragweed ([9]; 500 g ai/ha) | Plant response rating, Ryegrass, Italian ([10]; 125 g ai/ha) | Plant response rating, Ryegrass, Italian ([10]; 500 g ai/ha) | also measured
C[C@@H](Nc1nc(N)cc(C(F)(F)F)n1)c1cc2ccccc2s1 [Compound 97] | – | – | – | – | – | – | – | – | – | – | – | – | – | – | – | – | – | – | – | – | Barnyardgrass plant response rating ([1]; 1000 g ai/ha): 0; Kochia plant response rating (kochia (Kochia scoparia) [2]; 1000 g ai/ha): 0; Ragweed plant response rating ([3]; 1000 g ai/ha): 0; Ryegrass, Italian plant response rating ([4]; 1000 g ai/ha): 0; Foxtail, Giant plant response rating ([5]; 1000 g ai/ha): 0; Pigweed plant response rating ([6]; 1000 g ai/ha): 0; Barnyardgrass plant response rating [7, 16]: 0; Kochia plant response rating (kochia (Kochia scoparia) [8]; [16]): 20; Ragweed plant response rating [9, 16]: 0; Ryegrass, Italian plant response rating [10, 16]: 0; Foxtail, Giant plant response rating [11, 16]: 0; Pigweed plant response rating [12, 16]: 0; Wheat plant response rating [13, 16]: 0; Corn plant response rating (corn (Zea mays); [16]): 0; Blackgrass plant response rating [14, 16]: 0; Galium plant response rating [15, 16]: 20
Cc1cccc2oc(C(C)Nc3ncc(C(F)(F)F)c(N)n3)cc12 (centres unmarked) [Compound 101] | 90 | 90 | 90 | 90 | 70 | 100 | 30 | 90 | 100 | 100 | 70 | 100 | 30 | 100 | 70 | 100 | 30 | 100 | 60 | 70 | Plant response rating, Foxtail, Giant ([11]; 125 g ai/ha): 10; Plant response rating, Foxtail, Giant ([11]; 500 g ai/ha): 100; Plant response rating, Pigweed ([12]; 125 g ai/ha): 100; Plant response rating, Pigweed ([12]; 500 g ai/ha): 100; Plant response rating, Wheat ([13]; 125 g ai/ha): 0; Plant response rating, Wheat ([13]; 500 g ai/ha): 40; Plant response rating, Corn (corn (Zea mays); 125 g ai/ha): 0; Plant response rating, Corn (corn (Zea mays); 500 g ai/ha): 40; Plant response rating, Blackgrass ([14]; 125 g ai/ha): 20; Plant response rating, Blackgrass ([14]; 500 g ai/ha): 70; Plant response rating, Galium ([15]; 125 g ai/ha): 80; Plant response rating, Galium ([15]; 500 g ai/ha): 90
CC(Nc1ncc(C(F)(F)F)c(N)n1)c1cc2c(Br)cccc2o1 (centres unmarked) [Compound 102] | 30 | 80 | 70 | 90 | 50 | 80 | 30 | 60 | 80 | 100 | 100 | 100 | 10 | 70 | 70 | 90 | 30 | 100 | 0 | 30 | Plant response rating, Foxtail, Giant ([11]; 125 g ai/ha): 0; Plant response rating, Foxtail, Giant ([11]; 500 g ai/ha): 20; Plant response rating, Pigweed ([12]; 125 g ai/ha): 100; Plant response rating, Pigweed ([12]; 500 g ai/ha): 100; Plant response rating, Wheat ([13]; 125 g ai/ha): 0; Plant response rating, Wheat ([13]; 500 g ai/ha): 40; Plant response rating, Corn (corn (Zea mays); 125 g ai/ha): 0; Plant response rating, Corn (corn (Zea mays); 500 g ai/ha): 20; Plant response rating, Blackgrass ([14]; 125 g ai/ha): 0; Plant response rating, Blackgrass ([14]; 500 g ai/ha): 40; Plant response rating, Galium ([15]; 125 g ai/ha): 100; Plant response rating, Galium ([15]; 500 g ai/ha): 100
